The structures appear in SMILES notation.

Chain of recombinant Mcl-1 (residues 172-327) (Q07820 172-327): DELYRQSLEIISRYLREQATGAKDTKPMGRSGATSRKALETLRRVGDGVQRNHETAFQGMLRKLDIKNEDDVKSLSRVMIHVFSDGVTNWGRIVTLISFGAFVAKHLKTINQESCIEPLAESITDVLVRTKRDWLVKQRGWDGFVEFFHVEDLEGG

The first test has as its target recombinant Mcl-1 (residues 172-327) (Homo sapiens (Human), UniProt Q07820). As to the kind of experiment: Bak peptide fluorescence polarization anisotropy competition assay, Mcl-1.
Conditions: not given
The test is classed as binding. On the technique in general: Fluorescence polarisation rises when a labelled molecule tumbles more slowly, as on binding a larger partner.
As to `Cc1cc(OCCCc2c(C(=O)NS(=O)(=O)CCNC(=O)c3cn(Cc4ccccc4)c4ccccc34)[nH]c3ccccc23)cc(C)c1Cl` [Example 201, N-((2-(1-benzyl-1H-indole-3-carboxamido)ethyl)sulfonyl)-3-(3-(4-chloro-3,5-dimethylphenoxy)propyl)-1H-indole-2-carboxamide], the Ki lay in the range of 101 to 299 nM.

Still in this test, the particulars now being: Table 2, Ki range; FITC-Bak peptide 10 nM, Mcl-1 14 nM; read-out: Ki for inhibition of Mcl-1.
Regarding `Cc1cc(OCCCc2c(C(=O)NS(=O)(=O)CCNC(=O)C3CCCCC3)[nH]c3cc(Cl)ccc23)cc(C)c1Cl` [Example 226, 6-chloro-3-(3-(4-chloro-3,5-dimethylphenoxy)propyl)-N-((2-(cyclohexanecarboxamido)ethyl)sulfonyl)-1H-indole-2-carboxamide], the Ki was not above 100 nM. Consider `Cc1cc(OCCCc2c(C(=O)NS(=O)(=O)c3ccccc3)[nH]c3c(-c4c(C)n[nH]c4C)cccc23)cc(C)c1Cl` [Example 305, 3-(3-(4-chloro-3,5-dimethylphenoxy)propyl)-7-(3,5-dimethyl-1H-pyrazol-4-yl)-N-(phenylsulfonyl)-1H-indole-2-carboxamide], for which the inhibitory constant (Ki) was not above 100 nM.

As to `Cc1cc(OCCCc2c(C(=O)NS(C)(=O)=O)[nH]c3cccc(Cl)c23)ccc1Cl` [Example 50, 4-chloro-3-(3-(4-chloro-3-methylphenoxy)propyl)-N-(methylsulfonyl)-1H-indole-2-carboxamide], the inhibition constant (Ki) was not above 100 nM.

Take `Cc1ccsc1-c1cccc2c(CCCOc3cc(C)c(Cl)c(C)c3)c(C(=O)NS(=O)(=O)c3ccccc3)[nH]c12` [Example 99, 3-(3-(4-chloro-3,5-dimethylphenoxy)propyl)-7-(3-methylthiophen-2-yl)-N-(phenylsulfonyl)-1H-indole-2-carboxamide]: the Ki is not above 100 nM.

The test is the same for the next values; noted with them: read-out: Ki for inhibition of Mcl-1.
For `CS(=O)(=O)NC(=O)c1[nH]c2ccccc2c1CCCOc1ccc(Cl)cc1` [Example 35, 3-(3-(4-chlorophenoxy)propyl)-N-(methylsulfonyl)-1H-indole-2-carboxamide], the Ki is 10000 to 50000 nM.

Take `Cc1cc(OCCCc2c(C(=O)NS(=O)(=O)CCNC(=O)c3cc(C)n(Cc4ccncc4)c3C)[nH]c3ccccc23)cc(C)c1Cl` [Example 195, 3-(3-(4-chloro-3,5-dimethylphenoxy)propyl)-N-((2-(2,5-dimethyl-1-(pyridin-4-ylmethyl)-1H-pyrrole-3-carboxamido)ethyl)sulfonyl)-1H-indole-2-carboxamide]: the Ki was 101 to 299 nM. The same measure, in the same setting: then `Cc1cc(OCCCc2c(C(=O)NS(=O)(=O)CCNC(=O)c3ccn[nH]3)[nH]c3ccccc23)cc(C)c1Cl` [Example 181, N-((2-(1H-pyrazole-5-carboxamido)ethyl)sulfonyl)-3-(3-(4-chloro-3,5-dimethylphenoxy)propyl)-1H-indole-2-carboxamide], with 1000 to 9990 nM; and `Cc1cc(OCCCc2c(C(=O)NS(=O)(=O)CCNC(=O)C34CC5CC(CC(C5)C3)C4)[nH]c3ccccc23)cc(C)c1Cl` [Example 180, N-((2-((3r,5r,7r)-adamantane-1-carboxamido)ethyl)sulfonyl)-3-(3-(4-chloro-3,5-dimethylphenoxy)propyl)-1H-indole-2-carboxamide], with 101 to 299 nM. Still for that read-out and setting: then `Cc1cc(OCCCc2c(C(=O)NS(=O)(=O)c3ccccc3)n(Cc3cccnc3)c3cc(Cl)ccc23)cc(C)c1Cl` [Example 272, 6-chloro-3-(3-(4-chloro-3,5-dimethylphenoxy)propyl)-N-(phenylsulfonyl)-1-(pyridin-3-ylmethyl)-1H-indole-2-carboxamide], with 101 to 299 nM. On the same count and under the same terms, with `Cc1cc(OCCCc2c(C(=O)NS(=O)(=O)CCNC(=O)c3cc(Br)no3)[nH]c3ccccc23)cc(C)c1Cl` [Example 185, 3-bromo-N-(2-(N-(3-(3-(4-chloro-3,5-dimethylphenoxy)propyl)-1H-indole-2-carbonyl)sulfamoyl)ethyl)isoxazole-5-carboxamide] the figure was 501 to 999 nM; with `O=C(NS(=O)(=O)c1ccc2ccccc2c1)c1oc2ccccc2c1CCCOc1cccc2ccccc12` [Example 25, 3-(3-(naphthalen-1-yloxy)propyl)-N-(naphthalen-2-ylsulfonyl)benzofuran-2-carboxamide], 1000 to 9990 nM; with `Cc1cc(OCCCc2c(C(=O)NS(=O)(=O)CCNC(=O)c3ccoc3)[nH]c3ccccc23)cc(C)c1Cl` [Example 158, 3-(3-(4-chloro-3,5-dimethylphenoxy)propyl)-N-((2-(furan-3-carboxamido)ethyl)sulfonyl)-1H-indole-2-carboxamide], 101 to 299 nM. As to `Cc1cc(OCCCc2c(C(=O)NS(=O)(=O)CCNC(=O)C(F)(F)F)[nH]c3cc(Cl)ccc23)cc(C)c1Cl` [Example 254, 6-chloro-3-(3-(4-chloro-3,5-dimethylphenoxy)propyl)-N-((2-(2,2,2-trifluoroacetamido)ethyl)sulfonyl)-1H-indole-2-carboxamide], the inhibition constant Ki is 101 to 299 nM. The same measure, in the same setting: with `Cc1cc(OCCCc2c(C(=O)NS(=O)(=O)CCNC(=O)c3cc(C)n(C)c3C)[nH]c3ccccc23)cc(C)c1Cl` [Example 192, 3-(3-(4-chloro-3,5-dimethylphenoxy)propyl)-N-((2-(1,2,5-trimethyl-1H-pyrrole-3-carboxamido)ethyl)sulfonyl)-1H-indole-2-carboxamide] the figure was 301 to 500 nM. Turning to `Cc1cc(OCCCc2c(C(=O)NS(=O)(=O)c3ccccc3)[nH]c3c(-c4cnn(C)c4)ccc(Cl)c23)cc(C)c1Cl` [Example 122, 4-chloro-3-(3-(4-chloro-3,5-dimethylphenoxy)propyl)-7-(1-methyl-1H-pyrazol-4-yl)-N-(phenylsulfonyl)-1H-indole-2-carboxamide], the inhibition constant Ki is 301 to 500 nM.

`CC(=O)NCCS(=O)(=O)NC(=O)c1[nH]c2cc(Cl)ccc2c1CCCOc1cc(C)c(Cl)c(C)c1` [Example 251, N-((2-acetamidoethyl)sulfonyl)-6-chloro-3-(3-(4-chloro-3,5-dimethylphenoxy)propyl)-1H-indole-2-carboxamide]: the Ki fell in the range of 101 to 299 nM. Same read-out and setting: then `Cc1cc(OCCCc2c(C(=O)NS(=O)(=O)CCNC(=O)c3cnn(Cc4ccccc4)c3)[nH]c3ccccc23)cc(C)c1Cl` [Example 184, N-((2-(1-benzyl-1H-pyrazole-4-carboxamido)ethyl)sulfonyl)-3-(3-(4-chloro-3,5-dimethylphenoxy)propyl)-1H-indole-2-carboxamide], with 1000 to 9990 nM; and `Cc1cc(OCCCc2c(C(=O)NS(=O)(=O)c3ccccc3)[nH]c3c(-c4ccsc4)cccc23)cc(C)c1Cl` [Example 96, 3-(3-(4-chloro-3,5-dimethylphenoxy)propyl)-N-(phenylsulfonyl)-7-(thiophen-3-yl)-1H-indole-2-carboxamide], with 101 to 299 nM; and `Cc1ccc2c(CCCOc3cccc4ccccc34)c(C(=O)O)sc2c1` [Example 9, 6-methyl-3-(3-(naphthalen-1-yloxy)propyl)benzo[b]thiophene-2-carboxylic acid], with 501 to 999 nM. On to `COc1ccc(S(=O)(=O)NC(=O)c2[nH]c3ccccc3c2CCCOc2cc(C)c(Cl)c(C)c2)c(OC)c1` [Example 138, 3-(3-(4-chloro-3,5-dimethylphenoxy)propyl)-N-((2,4-dimethoxyphenyl)sulfonyl)-1H-indole-2-carboxamide], for which the Ki was in the range of 301 to 500 nM.

As to `CS(=O)(=O)NC(=O)c1[nH]c2ccccc2c1CCCOc1cccc(C(F)(F)F)c1` [Example 32, N-(methylsulfonyl)-3-(3-(3-(trifluoromethyl)phenoxy)propyl)-1H-indole-2-carboxamide], the inhibition constant Ki is 1000 to 9990 nM. The same measure, in the same setting: with `COCc1nn(C)c(C)c1-c1cccc2c(CCCOc3cc(C)c(Cl)c(C)c3)c(C(=O)NS(=O)(=O)c3ccccc3)n(C)c12` [Example 129, 3-(3-(4-chloro-3,5-dimethylphenoxy)propyl)-7-(3-(methoxymethyl)-1,5-dimethyl-1H-pyrazol-4-yl)-1-methyl-N-(phenylsulfonyl)-1H-indole-2-carboxamide] the figure was 101 to 299 nM. Same read-out and setting: with `COC(=O)c1ccc(S(=O)(=O)NC(=O)c2[nH]c3cc(Cl)ccc3c2CCCOc2cc(C)c(Cl)c(C)c2)o1` [Example 259] the figure was 101 to 299 nM. Same read-out and setting: then `Cc1cc(OCCCc2c(C(=O)NS(=O)(=O)c3ccc(OCc4ccccc4)nc3)[nH]c3cc(Cl)ccc23)cc(C)c1Cl` [Example 225, N-((6-(benzyloxy)pyridin-3-yl)sulfonyl)-6-chloro-3-(3-(4-chloro-3,5-dimethylphenoxy)propyl)-1H-indole-2-carboxamide], with 301 to 500 nM; and `Cc1ccc2c(CCCOc3cc(C)c(Cl)c(C)c3)c(C(=O)NS(C)(=O)=O)[nH]c2c1` [Example 117, 3-(3-(4-chloro-3,5-dimethylphenoxy)propyl)-6-methyl-N-(methylsulfonyl)-1H-indole-2-carboxamide], with 301 to 500 nM; and `CS(=O)(=O)NC(=O)c1cc2ccccc2n1CCCOc1cccc2ccccc12` [Example 14, N-(methylsulfonyl)-1-(3-(naphthalen-1-yloxy)propyl)-1H-indole-2-carboxamide], with 301 to 500 nM. For `Cc1cc(OCCCc2c(C(=O)NS(=O)(=O)CCNC(=O)C3CCCCC3)[nH]c3cccc(Cl)c23)cc(C)c1Cl` [Example 208, 4-chloro-3-(3-(4-chloro-3,5-dimethylphenoxy)propyl)-N-((2-(cyclohexanecarboxamido)ethyl)sulfonyl)-1H-indole-2-carboxamide], the Ki lay in the range of 301 to 500 nM. `Cc1cc(OCCCc2c(C(=O)NS(C)(=O)=O)sc3cccc(Cl)c23)cc(C)c1Cl` [Example 71, 4-chloro-3-(3-(4-chloro-3,5-dimethylphenoxy)propyl)-N-(methylsulfonyl)benzo[b]thiophene-2-carboxamide]: the Ki fell in the range of 1000 to 9990 nM. On the same count and under the same terms, with `Cc1cc(OCCCc2c(C(=O)NS(=O)(=O)CCNC(=O)c3cn[nH]c3)[nH]c3ccccc23)cc(C)c1Cl` [Example 182, N-((2-(1H-pyrazole-4-carboxamido)ethyl)sulfonyl)-3-(3-(4-chloro-3,5-dimethylphenoxy)propyl)-1H-indole-2-carboxamide] the figure was 1000 to 9990 nM; with `Cc1cc(OCCCc2c(C(=O)NS(=O)(=O)CCNC(=O)Cc3ccc(Br)cc3)[nH]c3ccccc23)cc(C)c1Cl` [Example 169, N-((2-(2-(4-bromophenyl)acetamido)ethyl)sulfonyl)-3-(3-(4-chloro-3,5-dimethylphenoxy)propyl)-1H-indole-2-carboxamide], 301 to 500 nM.

Usually Ki stands for a dissociation constant, usually derived from enzyme kinetics or from competition with a known ligand.
